For one data set, the target named is T1, Cathepsin K (Homo sapiens, UniProt P43235).
T1 sequence (P43235 whole entry): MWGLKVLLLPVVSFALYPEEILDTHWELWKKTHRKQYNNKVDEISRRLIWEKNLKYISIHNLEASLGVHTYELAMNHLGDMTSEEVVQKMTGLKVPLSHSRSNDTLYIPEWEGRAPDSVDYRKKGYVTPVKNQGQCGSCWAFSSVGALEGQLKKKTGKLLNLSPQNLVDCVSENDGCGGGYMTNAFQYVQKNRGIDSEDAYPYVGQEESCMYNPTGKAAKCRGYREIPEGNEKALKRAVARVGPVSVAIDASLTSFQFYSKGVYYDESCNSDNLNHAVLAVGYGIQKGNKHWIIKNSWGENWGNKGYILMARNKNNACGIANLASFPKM
The data set is described as follows: Inhibitory concentration against human cathepsin K.

For another data set, the target named is Cathepsin B (Homo sapiens, UniProt P07858). The data set is described as follows: Inhibitory concentration against human cathepsin B by fluorescence assay using 10 uM Cbz-Phe-Arg-AMC.
For a further data set, the target named is Procathepsin L (Homo sapiens, UniProt P07711). The data set is described as follows: Inhibitory concentration against human cathepsin L by fluorescence assay using 5 uM Cbz-Phe-Arg-AMC.
Sequence of Procathepsin L (P07711 whole entry): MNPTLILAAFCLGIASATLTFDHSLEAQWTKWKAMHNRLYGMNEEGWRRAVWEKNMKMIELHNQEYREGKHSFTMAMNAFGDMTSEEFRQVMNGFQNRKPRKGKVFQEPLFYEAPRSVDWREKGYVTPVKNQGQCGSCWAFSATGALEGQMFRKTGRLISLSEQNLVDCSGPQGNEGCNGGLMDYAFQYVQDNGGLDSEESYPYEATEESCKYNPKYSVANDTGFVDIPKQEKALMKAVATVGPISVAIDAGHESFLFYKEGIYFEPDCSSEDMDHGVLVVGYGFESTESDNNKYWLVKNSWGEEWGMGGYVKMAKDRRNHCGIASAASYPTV
The next data set addresses T2, Cathepsin L2 (Homo sapiens, UniProt O60911).
T2 sequence (O60911 whole entry): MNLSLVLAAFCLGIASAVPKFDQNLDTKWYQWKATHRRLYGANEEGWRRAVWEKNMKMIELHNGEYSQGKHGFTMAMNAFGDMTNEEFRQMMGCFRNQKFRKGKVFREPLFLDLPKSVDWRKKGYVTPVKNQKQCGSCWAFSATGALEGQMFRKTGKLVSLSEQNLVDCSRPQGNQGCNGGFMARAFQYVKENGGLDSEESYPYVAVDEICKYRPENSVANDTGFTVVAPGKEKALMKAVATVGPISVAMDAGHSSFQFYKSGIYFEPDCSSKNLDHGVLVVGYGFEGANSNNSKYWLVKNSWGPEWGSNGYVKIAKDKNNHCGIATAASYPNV
The data set is described as follows: Inhibitory concentration against human cathepsin V by fluorescence assay using 2 uM Cbz-Phe-Arg-AMC.

The next data set concerns the target Cathepsin S (Homo sapiens, UniProt P25774). The data set is described as follows: Inhibitory concentration against human cathepsin S by fluorescence assay using 10 uM Cbz-Val-Val-Arg-AMC.
A further data set addresses T3, Pro-cathepsin H (Homo sapiens, UniProt P09668).
T3 sequence (P09668 whole entry): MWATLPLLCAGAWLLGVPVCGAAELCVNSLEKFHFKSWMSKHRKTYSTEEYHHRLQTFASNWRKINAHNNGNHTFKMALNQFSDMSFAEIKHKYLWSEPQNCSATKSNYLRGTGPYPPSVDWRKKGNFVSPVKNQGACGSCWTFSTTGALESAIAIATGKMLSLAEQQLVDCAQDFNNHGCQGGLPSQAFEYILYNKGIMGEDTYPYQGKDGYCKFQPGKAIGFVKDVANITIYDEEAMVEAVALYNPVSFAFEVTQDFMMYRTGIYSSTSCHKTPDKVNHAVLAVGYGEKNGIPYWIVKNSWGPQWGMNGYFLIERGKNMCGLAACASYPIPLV
The experiment in a line: Inhibitory concentration against human cathepsin H by fluorescence assay using 50 uM L-Arg-b-naphthalamide.

Data set [1] is described as follows: Total clearance after intravenous administration of […] mg/kg in rats was determined. As to conditions: rat, in vivo, 2.5 mg/kg, read-out: C1. The class given is ADME, organism-based.
Data set [2] can be described thus: solubility in fasted state stimulated intestinal fluid (pH6.8). Type of data set: ADME. As to conditions: rat, fasted state simulated intestinal fluid, pH 6.8.
Data set [3] is described as follows: Half-life after intravenous administration of […] mg/kg in rats was determined. The class given is ADME, organism-based. As to conditions: rat, in vivo, 2.5 mg/kg.
A short description of data set [4]: Steady state volume of distribution after intravenous administration of 2.5 mg/kg in rats was determined. Type of data set: ADME, organism-based. The arrangement: dose 2.5 mg/kg, route intravenous. As to conditions: rat, in vivo, read-out: Vss.
Data set [5] is described as follows: Oral bioavailability in rat (dose 5 mg/kg p.o.). As to conditions: in vivo.
A short description of data set [6]: Equilibrium solubility in fasted state-simulated intestinal fluid at pH 6.8 was determined. The class given is ADME.

≈ marks a conversion by molar mass, not a printed value.

Sequence of Cathepsin S (P25774 whole entry): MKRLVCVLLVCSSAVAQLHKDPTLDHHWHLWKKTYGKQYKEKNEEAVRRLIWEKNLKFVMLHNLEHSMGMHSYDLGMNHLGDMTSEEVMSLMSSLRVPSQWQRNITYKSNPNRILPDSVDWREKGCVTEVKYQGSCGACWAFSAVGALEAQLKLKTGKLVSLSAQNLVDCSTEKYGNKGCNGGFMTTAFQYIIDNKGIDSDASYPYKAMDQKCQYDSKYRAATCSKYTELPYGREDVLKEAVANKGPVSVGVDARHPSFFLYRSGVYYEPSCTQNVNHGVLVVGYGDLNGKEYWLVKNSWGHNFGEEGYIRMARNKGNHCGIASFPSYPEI

In the case of `CCCC[C@H](NC(=O)OC1C2CC3CC(C2)CC1C3)C(=O)C(=O)N[C@H](C)c1ccccc1` (some centres undefined), the half-maximal inhibitory concentration (IC50) (usually the point on the concentration scale where inhibition reaches its midpoint) is 7.2 nM at Cathepsin K; more than 5000 nM on Cathepsin B; 2600 nM on Procathepsin L; 390 nM on Cathepsin L2; 16 nM against Cathepsin S; more than 5000 nM on Pro-cathepsin H.
In the case of `CCCC[C@H](NC(=O)O[C@@H]1C(=O)OCC1(C)C)C(=O)C(=O)N[C@H](C)c1ccccc1`, in data set [1], the clearance stood at 460 mL/min/kg. For the same molecule, the IC50 was 3 nM at Cathepsin K; more than 500 nM against Cathepsin B; 410 nM at Procathepsin L; 79 nM against Cathepsin L2; 13 nM on Cathepsin S; more than 500 nM on Pro-cathepsin H. For the same molecule, the solubility (as a rule, the concentration that dissolves in the medium under given conditions) in data set [2] is 240 µg/mL (≈ 573 µM). In data set [3], the half-life (as a rule, the time needed for the level to fall by half in the phase considered) was found to be 11 min. Moreover, in data set [4], the Vd amounted to 3.4 L/kg. The bioavailability – broadly, dose-corrected exposure relative to a reference, in per cent – in [5] amounted to 0%.
As for `CCCC[C@H](NC(=O)OC1CC2CCC1C2)C(=O)C(=O)N[C@H](C)c1ccccc1` (some centres undefined), the half-inhibitory concentration (IC50) on Cathepsin K was 26 nM; against Cathepsin B, more than 13000 nM; on Procathepsin L it was 1000 nM; against Cathepsin L2, 190 nM; at Cathepsin S, 19 nM; against Pro-cathepsin H it was more than 13000 nM.
`CCCC[C@H](NC(=O)OC1C[C@H](C)C[C@@H](C)C1)C(=O)C(=O)N[C@H](C)c1ccccc1` (some centres undefined): the concentration for half-maximal inhibition (IC50) is 190 nM on Cathepsin K; more than 13000 nM against Cathepsin B; 6800 nM against Procathepsin L; 2000 nM against Cathepsin L2; 290 nM on Cathepsin S; more than 13000 nM against Pro-cathepsin H.
`CCCC[C@H](NC(=O)O[C@@H]1C[C@H](C)C[C@H](C)C1)C(=O)C(=O)N[C@H](C)c1ccccc1`: the concentration for half-maximal inhibition (IC50) at Cathepsin K is 350 nM; on Cathepsin B it was more than 13000 nM; against Procathepsin L it was 4400 nM; at Cathepsin L2, 2800 nM; against Cathepsin S it was 63 nM; against Pro-cathepsin H, more than 13000 nM.
Take `CCCC[C@H](NC(=O)O[C@H]1CCCc2ccccc21)C(=O)C(=O)N[C@H](C)c1ccccc1`: the half-maximal inhibitory concentration (IC50) was 32 nM against Cathepsin K; more than 2000 nM at Cathepsin B; 660 nM at Procathepsin L; 340 nM against Cathepsin L2; 79 nM against Cathepsin S; more than 2000 nM against Pro-cathepsin H.
Take `CCCC[C@H](NC(=O)O[C@H]1CCc2ccccc21)C(=O)C(=O)N[C@H](C)c1ccccc1`: the IC50 against Cathepsin K is 100 nM; on Cathepsin B, more than 13000 nM; at Procathepsin L it was 460 nM; against Cathepsin L2, 290 nM; against Cathepsin S, 280 nM; at Pro-cathepsin H, more than 13000 nM.
In the case of `CCCC[C@H](NC(=O)OC1C2(C)CCC(C2)C1(C)C)C(=O)C(=O)N[C@H](C)c1ccccc1` (some centres undefined), the half-inhibitory concentration (IC50) against Cathepsin K is 5.7 nM; against Cathepsin B, 12000 nM; on Procathepsin L, 1700 nM; at Cathepsin L2, 180 nM; against Cathepsin S, 30 nM; on Pro-cathepsin H it was more than 13000 nM.
Regarding `CCCC[C@H](NC(=O)O[C@@H]1C(=O)NCC1(C)C)C(=O)C(=O)N[C@H](C)c1ccccc1`, in [1], the clearance stood at 48 mL/min/kg. The IC50 on Cathepsin K was 2.5 nM; on Cathepsin B, 1400 nM; at Procathepsin L, 150 nM; against Cathepsin L2, 29 nM; at Cathepsin S, 18 nM; at Pro-cathepsin H it was more than 13000 nM. The solubility (thermodynamic) (usually the concentration in solution at equilibrium with solid) in [6] is 800 µg/mL (≈ 1920 µM). For the same molecule, in [3], the half-life worked out at 62 min. The Vd in data set [4] amounted to 1.3 L/kg. This molecule also showed a bioavailability in [5] of 25%.
